Measurements taken from the supplement of paper PMC11208160.

Experiment: recombinant UMI read abundance after kanamycin selection (control-corrected) (log10(CPM+1)); higher = more efficient recombination; extreme values may be limits of the assay; sequences stand for … in AGTGCAGAGAAAATCGGCCAGTTTTCTCTGCCTGCAGTCCGCATGCCGTGGGACCCCTTGGGTTCTAACCTGTTGCCTAGATTTATGCAGCGGACTGCCTTTCTCCCAAAGTGATAAACCGG…AGGTTGGTTTCACT; site = the 11-nt donor
Summary of the method: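 Each donor and donor-binding-loop pair was tracked by a 12-nt UMI on a plasmid carrying a promoterless kanamycin gene. With a second plasmid supplying a fixed target and T7-inducible IS621 bridge recombinase, the pool was plated in Escherichia coli on IPTG (0.07 mM) plus kanamycin or unselected. Sequencing of recombinant UMIs across the donor–target junction gave counts expressed as log10(CPM+1) after replicate averaging and control-derived scaling.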
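Further: IS621 bridge recombinase in Escherichia coli cells against a fixed T5 target plasmid.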

With “CAATCCTCATGGACCGGTTTTCCCGGTAATCCGTATTTGAA (site CAATCCTCTTT)” as the sequence, how does the “recombinant UMI read abundance (log10)” value read?
The value was 1.98.

With “CAATCCTCATGGACCGGTTTTCCCGGTAATCCGTATTTGAA (site CAATGCTCTTT)” as the sequence, how does the “recombinant UMI read abundance (log10)” value read?
Its value is 0.00935.

With “CAATCCTCATGGACCGGTTTTCCCGGTAATCCGTATTTGAA (site CAATTCTCTTT)” as the sequence, how does the “recombinant UMI read abundance (log10)” value read?
The value was 0.

Which “recombinant UMI read abundance (log10)” value does the source give for “CAATGAGCATGGACCGGTTTTCCCGGTAATCCGTATTTGGG (site AAATGAGCTCC)” here?
The value was 0.0303.

Which “recombinant UMI read abundance (log10)” value does the source give for “CAATGAGCATGGACCGGTTTTCCCGGTAATCCGTATTTGGG (site CAATGAGCTCC)” here?
Its value is 0.779.

For “CAATGAGCATGGACCGGTTTTCCCGGTAATCCGTATTTGGG (site GAATGAGCTCC)”, which “recombinant UMI read abundance (log10)” value is on record?
Its value is 0.00334.

Which “recombinant UMI read abundance (log10)” value does the source give for “CAATGAGCATGGACCGGTTTTCCCGGTAATCCGTATTTGGG (site TAATGAGCTCC)” here?
Its value is 0.0682.

With “CAATGCCCATGGACCGGTTTTCCCGGTAATCCGTATTTGCT (site CAATACCCTAG)” as the sequence, how does the “recombinant UMI read abundance (log10)” value read?
The value was 1.74.

For “CAATGCCCATGGACCGGTTTTCCCGGTAATCCGTATTTGCT (site CAATCCCCTAG)”, which “recombinant UMI read abundance (log10)” value is on record?
The value was 0.246.

With “CAATGCCCATGGACCGGTTTTCCCGGTAATCCGTATTTGCT (site CAATGCCCTAG)” as the sequence, how does the “recombinant UMI read abundance (log10)” value read?
The value was 1.34.

For “CAATGCCCATGGACCGGTTTTCCCGGTAATCCGTATTTGCT (site CAATTCCCTAG)”, which “recombinant UMI read abundance (log10)” value is on record?
Its value is 0.

Which “recombinant UMI read abundance (log10)” value does the source give for “CAATGCGCATGGACCGGTTTTCCCGGTAATCCGTATTTGAA (site CAATGCACTTT)” here?
The value was 1.15.

For “CAATGCGCATGGACCGGTTTTCCCGGTAATCCGTATTTGAA (site CAATGCCCTTT)”, which “recombinant UMI read abundance (log10)” value is on record?
The value was 0.0173.

With “CAATGCGCATGGACCGGTTTTCCCGGTAATCCGTATTTGAA (site CAATGCGCTTT)” as the sequence, how does the “recombinant UMI read abundance (log10)” value read?
The value was 1.9.

Which “recombinant UMI read abundance (log10)” value does the source give for “CAATGCGCATGGACCGGTTTTCCCGGTAATCCGTATTTGAA (site CAATGCTCTTT)” here?
The value was 0.823.

With “CAATGCTCATGGACCGGTTTTCCCGGTAATCCGTATTTGAC (site CAATGCTCTAT)” as the sequence, how does the “recombinant UMI read abundance (log10)” value read?
The value was 0.737.

With “CAATGCTCATGGACCGGTTTTCCCGGTAATCCGTATTTGAC (site CAATGCTCTCT)” as the sequence, how does the “recombinant UMI read abundance (log10)” value read?
The value was 0.051.

Which “recombinant UMI read abundance (log10)” value does the source give for “CAATGCTCATGGACCGGTTTTCCCGGTAATCCGTATTTGAC (site CAATGCTCTGT)” here?
The value was 3.03.

Which “recombinant UMI read abundance (log10)” value does the source give for “CAATGCTCATGGACCGGTTTTCCCGGTAATCCGTATTTGAC (site CAATGCTCTTT)” here?
Its value is 1.28.

Which “recombinant UMI read abundance (log10)” value does the source give for “CAATGCTCATGGACCGGTTTTCCCGGTAATCCGTATTTGAT (site CAATGCTCTAT)” here?
Its value is 2.87.

Which “recombinant UMI read abundance (log10)” value does the source give for “CAATGCTCATGGACCGGTTTTCCCGGTAATCCGTATTTGAT (site CAATGCTCTCT)” here?
The value was 0.607.

For “CAATGCTCATGGACCGGTTTTCCCGGTAATCCGTATTTGAT (site CAATGCTCTGT)”, which “recombinant UMI read abundance (log10)” value is on record?
The value was 1.36.

Which “recombinant UMI read abundance (log10)” value does the source give for “CAATGCTCATGGACCGGTTTTCCCGGTAATCCGTATTTGAT (site CAATGCTCTTT)” here?
The value was 0.993.

For “CAATTAACATGGACCGGTTTTCCCGGTAATCCGTATTTGTT (site CAATTAACTAA)”, which “recombinant UMI read abundance (log10)” value is on record?
The value was 0.00834.

Which “recombinant UMI read abundance (log10)” value does the source give for “CAATTCCCATGGACCGGTTTTCCCGGTAATCCGTATTTGCT (site AAATTCCCTAG)” here?
Its value is 0.

Which “recombinant UMI read abundance (log10)” value does the source give for “CAATTCCCATGGACCGGTTTTCCCGGTAATCCGTATTTGCT (site CAAATCCCTAG)” here?
The value was 0.763.

Which “recombinant UMI read abundance (log10)” value does the source give for “CAATTCCCATGGACCGGTTTTCCCGGTAATCCGTATTTGCT (site CAACTCCCTAG)” here?
The value was 1.16.

With “CAATTCCCATGGACCGGTTTTCCCGGTAATCCGTATTTGCT (site CAAGTCCCTAG)” as the sequence, how does the “recombinant UMI read abundance (log10)” value read?
Its value is 1.05.

For “CAATTCCCATGGACCGGTTTTCCCGGTAATCCGTATTTGCT (site CAATACCCTAG)”, which “recombinant UMI read abundance (log10)” value is on record?
The value was 0.712.

For “CAATTCCCATGGACCGGTTTTCCCGGTAATCCGTATTTGCT (site CAATCCCCTAG)”, which “recombinant UMI read abundance (log10)” value is on record?
The value was 0.539.

With “CAATTCCCATGGACCGGTTTTCCCGGTAATCCGTATTTGCT (site CAATGCCCTAG)” as the sequence, how does the “recombinant UMI read abundance (log10)” value read?
Its value is 0.

With “CAATTCCCATGGACCGGTTTTCCCGGTAATCCGTATTTGCT (site CAATTACCTAG)” as the sequence, how does the “recombinant UMI read abundance (log10)” value read?
The value was 0.
